Non-standard residues stand in square brackets, D forms with d. Residues, ends and D or L forms follow the SMILES beside them. ξ: configuration not given here. Aze = O=C(O)[C@@H]1CCN1; ξPip = O=C(O)C1CCCCN1; Ava = NCCCCC(=O)O
Assays:
[1] = test system: thrombin-stimulated platelets; experiment: Inhibition of radiolabeled (125I) fibrinogen binding assay; conditions: for IC50: thrombin-stimulated platelets, read-out: Inhibition of 125I-Fibrinogen Binding to Platelet IC50; for Inhibition of 125I-Fibrinogen Binding to Platelet, inhibition at 50 μg/ml: at 50 μg/ml (footnote *)
Description: I. Inhibition of Radiolabeled (125I) Fibrinogen Binding Assay, which is essentially based on the method described in Proc Natl. Acad. Sci. U.S.A. Vol. 83, pp. 5708-5712, August 1986, and is as follows.
Platelets are washed free of plasma constitutes by the albumin density-gradient technique. In each experimental mixture platelets in modified Tyrode's buffer are stimulated with human α-thrombin at 22°-25° C. for 10 minutes (3.125×10" platelets per liter and thrombin at […]). Hirudin is then added at a 25-fold excess for 5 minutes before addition of the radiolabeled ligand and any competing ligand. After these additions, the final platelet count in the mixture is […], bound and free ligand are separated by centrifuging 50 μl of the mixture through 300 μl of 20% sucrose at 12,000×g for 4 minutes. The platelet pellet is then separated from the rest of the mixture to determine platelet-bound radioactivity. Nonspecific binding is measured in mixtures containing an excess of unlabeled ligand. When binding curves are analyzed by Scatchard analysis, nonspecific binding is derived as a fitted parameter from the binding isotherm by means of a computerized program. To determine the concentration of each inhibitory compound necessary to inhibit 50% of fibrinogen binding to thrombin-stimulated platelets (IC50), each compound is tested at 0.176 μgmol/liter (60 μg/ml). The IC50 is derived by plotting residual fibrinogen binding against the logarithm of the sample compound's concentration.

Human Platelets = experiment: Inhibition of fibrinogen-mediated platelet aggregation; assay type: cell-based; conditions: for IC50: thrombin-activated human platelets, rate of aggregation
Description: II. Inhibition of Fibrinogen - Mediated Platelet Aggregation, which is essentially based on the method described in Blood, Vol. 66, No. 4, October 1985, pp. 846-952, and is as follows.
Human Platelets were isolated from freshly drawn whole blood and were suspended in 0.14 mol/L NaCl, 2.7 mmol/L […], 12 mmol/L NaHCO3, 0.42 mmol/L Na2 HPO4, 0.55 mmol/L glucose, and 5 mmol/L Hepes, pH 7.35 at 2×10^8 platelets/ml. The suspension was incubated at 37° C. An aliquot of 0.4 ml of platelet suspension was activated by human thrombin at a final concentration of 2 μg/ml of thrombin for one minute. After one minute the reaction was stopped by a thrombin inhibitor. Serial dilution of the compound being tested was then added to the activated platelet, the reaction was allowed to proceed for one minute, followed by the addition of human fibrinogen at a final concentration of […] of fibrinogen. Platelet aggregation was then recorded by an aggregometer. Rate of aggregation was used to calculate IC50.

| Structure (SMILES) | IC50 [1] | Inhibition of Fibrinogen Mediated Platelet Aggregation % inhibition at 100 μM (Human Platelets) | IC50 (Human Platelets) | Inhibition of 125I-Fibrinogen Binding to Platelet, inhibition at 50 μg/ml [1] |
| --- | --- | --- | --- | --- |
| CC(C)[C@H](NC(=O)[C@H](CC(=O)O)NC(=O)[C@@H]1CCN1C(=O)CCCCN)C(=O)O [N-(5-aminopentanoyl)-azetidin-(2S)-carboxyl-Asp-Val] (H-[Ava][Aze]DV-OH) | > 200 µM | 74% | 59 µM |  |
| CC(C)[C@H](NC(=O)[C@H](CC(=O)O)NC(=O)[C@@H]1CCN1C(=O)[C@@H](N)CCCNC(=N)N)C(=O)O [N-(L-arqinyl)-azetidine-(2S)-carboxyl-Asp-Val] (H-R[Aze]DV-OH) | 13 µM | 91% | 13 µM |  |
| CC(C)[C@H](NC(=O)[C@H](CC(=O)O)NC(=O)C1CCCCN1C(=O)[C@@H](N)CCCNC(=N)N)C(=O)O (stereo partly drawn) [N-[1-(L-arginyl)piperidin-2-yl-carbonyl]-L-aspartyl-L-valine] (H-R[ξPip]DV-OH) |  | 73% | 28.6 µM | * (Inhibited less than 50% at 50 μg/ml) |
| CC(C)[C@H](NC(=O)[C@H](CC(=O)O)NC(=O)[C@@H]1CCCN1C(=O)[C@@H](N)CCCNC(=N)N)C(=O)O [L-arginyl-L-prolyl-L-aspartyl-L-valine, L-Arginyl-L-prolyl-L-aspartyl-L-valine] (H-RPDV-OH) |  | 25% | > 100 µM | * (Inhibited less than 50% at 50 μg/ml) |

— patent US5053392A, “Novel arginine, glycine, aspartic acid derivatives as platelet-aggregation inhibitors” (Rhone-Poulenc Rorer Pharmaceuticals Inc., priority 1989, dated 1991)
